Measurements published in ChEMBL document CHEMBL4622963, “Optimization of Nicotinamides as Potent and Selective IRAK4 Inhibitors with Efficacy in a Murine Model of Psoriasis” (ACS Med Chem Lett, 2020).

Key:
[1] = target: T1, Interleukin-1 receptor-associated kinase 4 (Homo sapiens, UniProt Q9NWZ3); experiment: Inhibition of IRAK4 (unknown origin) using FL-IPTSPITTTYFFFKKK peptide and ATP as substrate incubated for 60 mins by fluorescence based caliper assay
T1 sequence (Q9NWZ3 whole entry): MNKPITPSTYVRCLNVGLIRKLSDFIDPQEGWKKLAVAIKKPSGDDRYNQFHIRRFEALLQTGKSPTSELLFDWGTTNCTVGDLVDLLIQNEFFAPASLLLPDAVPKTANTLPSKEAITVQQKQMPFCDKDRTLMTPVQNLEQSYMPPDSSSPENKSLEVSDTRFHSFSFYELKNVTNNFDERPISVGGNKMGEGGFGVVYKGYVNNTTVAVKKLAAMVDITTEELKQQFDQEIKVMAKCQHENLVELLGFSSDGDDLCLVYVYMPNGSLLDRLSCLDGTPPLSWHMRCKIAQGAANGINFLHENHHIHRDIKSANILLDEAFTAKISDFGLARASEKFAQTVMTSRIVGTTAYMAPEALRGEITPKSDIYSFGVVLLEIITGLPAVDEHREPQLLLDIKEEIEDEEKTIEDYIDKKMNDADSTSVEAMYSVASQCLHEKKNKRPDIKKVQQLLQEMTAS

[2] = target: T1, Interleukin-1 receptor-associated kinase 4; experiment: Inhibition of IRAK4 in human PBMC assessed as inhibition of LTA-induced IL-6 production preincubated for 30 mins followed by LTA-stimulation and measured after 5 hrs by ELISA; format: cell-based
[3] = target: T1, Interleukin-1 receptor-associated kinase 4; experiment: Inhibition of IRAK4 in human whole blood assessed as inhibition of LTA-induced IL-6 production preincubated for 30 mins followed by LTA-stimulation and measured after 5 hrs by ELISA; format: tissue-based
[4] = Stability in human liver microsomes assessed as parent compound remaining; format: ADME, Microsome
[5] = Stability in mouse liver microsomes assessed as parent compound remaining measured after 10 mins; format: ADME, Microsome; details: read-out: Stability
Homo sapiens [6] = species: Homo sapiens; experiment: Selectivity index, ratio of IC50 for N-terminal His6-tagged human full length recombinant LCK expressed in baculovirus infected Sf21 cells to IC50 for IRAK4 (unknown origin)
[7] = target: T2, Interleukin-1 receptor-associated kinase 4 (Mus musculus, UniProt Q8R4K2); experiment: Inhibition of IRAK4 in mouse whole blood; format: tissue-based
T2 sequence (Q8R4K2 whole entry): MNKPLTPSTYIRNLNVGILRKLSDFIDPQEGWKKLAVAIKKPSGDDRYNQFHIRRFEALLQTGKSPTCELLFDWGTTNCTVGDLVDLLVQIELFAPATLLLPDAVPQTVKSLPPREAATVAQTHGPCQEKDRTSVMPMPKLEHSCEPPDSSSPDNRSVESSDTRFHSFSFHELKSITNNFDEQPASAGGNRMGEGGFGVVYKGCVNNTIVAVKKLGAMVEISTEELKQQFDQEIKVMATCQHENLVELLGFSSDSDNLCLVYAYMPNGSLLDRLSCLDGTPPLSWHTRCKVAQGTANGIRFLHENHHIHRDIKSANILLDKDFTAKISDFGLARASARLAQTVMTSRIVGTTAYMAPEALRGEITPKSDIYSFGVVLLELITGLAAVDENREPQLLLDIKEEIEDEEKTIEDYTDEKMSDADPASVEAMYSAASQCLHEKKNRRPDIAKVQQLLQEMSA

[8] = target: T3, Interleukin-1 receptor-associated kinase 4 (Mus musculus) (UniProt Q8R4K2); experiment: In vivo Inhibition of IRAK4 in BALB/c mouse assessed as suppression of TLR2-mediated LTA-induced IL-6 level in serum at 10 mg/kg, po treated 30 mins prior to LTA-stimulation and measured after 90 mins by ELISA relative to control; format: functional, organism-based
T3 sequence (whole entry): T2 sequence (Q8R4K2 whole entry)

[9] = target: T3, Interleukin-1 receptor-associated kinase 4 (Mus musculus); experiment: In vivo Inhibition of IRAK4 in BALB/c mouse assessed as suppression of TLR2-mediated LTA-induced IL-6 level in serum at 25 mg/kg, po treated 30 mins prior to LTA-stimulation and measured after 90 mins by ELISA relative to control; format: functional, organism-based
[10] = target: T3, Interleukin-1 receptor-associated kinase 4 (Mus musculus); experiment: In vivo Inhibition of IRAK4 in BALB/c mouse assessed as suppression of TLR2-mediated LTA-induced IL-6 level in serum at 50 mg/kg, po treated 30 mins prior to LTA-stimulation and measured after 90 mins by ELISA relative to control; format: functional, organism-based
[11] = Permeability across apical to basolateral side in human Caco2 cells; details: Caco-2
[12] = Clearance in mouse at 2 mg/kg, iv administered as infusion or 10 mg/kg, po via gavage measured up to 24 hrs by LC-MS analysis; format: ADME, organism-based; details: in vivo
[13] = Volume of distribution at steady state in mouse at 2 mg/kg, iv administered as infusion or 10 mg/kg, po via gavage measured up to 24 hrs by LC-MS analysis; format: ADME, organism-based; details: in vivo, read-out: Vdss
[14] = Half life in mouse at 2 mg/kg, iv administered as infusion or 10 mg/kg, po via gavage measured up to 24 hrs by LC-MS analysis; format: ADME, organism-based; details: in vivo
[15] = AUC in mouse at 2 mg/kg, iv administered as infusion measured up to 24 hrs by LC-MS analysis; format: ADME, organism-based; design: time < 24 hr, dose 2 mg/kg, route intravenous; details: in vivo
[16] = AUC in mouse at 10 mg/kg, po via gavage measured up to 24 hrs by LC-MS analysis; format: ADME, organism-based; design: time < 24 hr, dose 10 mg/kg, route oral; details: in vivo
[17] = Oral bioavailability in mouse at 10 mg/kg administered via gavage measured up to 24 hrs by LC-MS analysis; format: ADME, organism-based; details: in vivo
[18] = Time during which drug concentration exceeds IC50 for IRAK4 in mouse whole blood in mouse at 10 mg/kg, po; format: ADME, organism-based; details: in vivo
[19] = Drug uptake in LTA-treated BALB/c mouse serum at 25 mg/kg, po treated 30 mins prior to LTA-stimulation and measured after 90 mins by LC-MS analysis; format: ADME, organism-based; details: read-out: Drug uptake
[20] = Drug uptake in LTA-treated BALB/c mouse serum at 10 mg/kg, po treated 30 mins prior to LTA-stimulation and measured after 90 mins by LC-MS analysis; format: ADME, organism-based; details: read-out: Drug uptake
[21] = Drug uptake in LTA-treated BALB/c mouse serum at 50 mg/kg, po treated 30 mins prior to LTA-stimulation and measured after 90 mins by LC-MS analysis; format: ADME, organism-based; details: read-out: Drug uptake
Mus musculus [22] = experiment: Protection against imiquimod-induced psoriasis in C57BL/6 mouse assessed as inhibition of skin scaling at 3 mg/kg, po dosed via gavage once daily and measured on day 6 relative to control; format: functional; details: C57BL/6, po, 144 h
Mus musculus [23] = experiment: Protection against imiquimod-induced psoriasis in C57BL/6 mouse assessed as inhibition of skin erythema level at 3 mg/kg, po dosed via gavage once daily and measured on day 6 relative to control; format: functional; details: C57BL/6, po, 144 h
Cytochrome P450 3A4 = Cytochrome P450 3A4 (Homo sapiens, UniProt P08684); experiment: Inhibition of CYP3A4 (unknown origin); format: ADME
Homo sapiens [24] = species: Homo sapiens; experiment: Selectivity index, ratio of IC50 for recombinant N-terminal GST-tagged human cKit (544 to end residues) expressed in baculovirus infected Sf21 cells to IC50 for IRAK4 (unknown origin)
[25] = Clearance in mouse at 2 mg/kg, iv administered as infusion or 3 mg/kg, po via gavage measured up to 24 hrs by LC-MS analysis; format: ADME, organism-based; details: in vivo
[26] = Volume of distribution at steady state in mouse at 2 mg/kg, iv administered as infusion or 3 mg/kg, po via gavage measured up to 24 hrs by LC-MS analysis; format: ADME, organism-based; details: in vivo, read-out: Vdss
[27] = Half life in mouse at 2 mg/kg, iv administered as infusion or 3 mg/kg, po via gavage measured up to 24 hrs by LC-MS analysis; format: ADME, organism-based; details: in vivo
[28] = AUC in mouse at 3 mg/kg, po via gavage measured up to 24 hrs by LC-MS analysis; format: ADME, organism-based; design: dose 3 mg/kg, time < 24 hr, route oral; details: in vivo
[29] = Oral bioavailability in mouse at 3 mg/kg administered via gavage measured up to 24 hrs by LC-MS analysis; format: ADME, organism-based; details: in vivo

Cytochrome P450 3A4, sequence (P08684 whole entry): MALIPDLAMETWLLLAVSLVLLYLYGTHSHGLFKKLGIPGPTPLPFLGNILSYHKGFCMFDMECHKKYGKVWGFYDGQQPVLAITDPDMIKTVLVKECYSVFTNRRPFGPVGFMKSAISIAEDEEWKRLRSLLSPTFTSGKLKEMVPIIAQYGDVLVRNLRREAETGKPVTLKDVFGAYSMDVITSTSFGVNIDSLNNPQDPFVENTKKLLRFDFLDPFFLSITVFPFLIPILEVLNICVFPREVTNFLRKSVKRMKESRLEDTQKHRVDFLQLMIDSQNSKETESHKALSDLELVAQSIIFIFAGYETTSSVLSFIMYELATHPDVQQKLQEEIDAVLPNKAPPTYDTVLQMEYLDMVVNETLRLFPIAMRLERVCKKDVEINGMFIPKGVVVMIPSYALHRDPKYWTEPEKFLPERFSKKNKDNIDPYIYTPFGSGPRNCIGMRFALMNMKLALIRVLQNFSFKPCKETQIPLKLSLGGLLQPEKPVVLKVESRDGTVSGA

Compound	IC50 [1] [nM]	IC50 [2] [nM]	IC50 [3] [nM]	Stability [4] [%]	remaining at 10 min [5] [%]	Papp A→B [11] [×10⁻⁶ cm/s]	Ratio IC50 (Homo sapiens [6])	other results
CC(C)(O)[C@@H](F)CNC(=O)c1cnc(Nc2ccc3ncsc3c2)cc1NC1CC1	–	730	–	–	–	–	110	–
C[C@@H]1C[C@H]2[C@@H]3CCC4=CC(=O)C=C[C@]4(C)[C@@]3(F)[C@@H](O)C[C@]2(C)[C@@]1(O)C(=O)CO [DEXAMETHASONE]	–	–	–	–	–	–	–	inhibition in vivo at 3 mg/kg (Mus musculus [22]): 45%; inhibition in vivo at 3 mg/kg (Mus musculus [23]): 37%
CNC(=O)c1cnc(Nc2ccc3ncsc3c2)cc1N[C@H](CO)Cc1ccccc1	–	–	–	46	29	< 1.5	–	–
CC(C)(O)CCNC(=O)c1cnc(Nc2ccc3ncsc3c2)cc1NC1CC1	–	290	900	65	99	–	200	–
CC(C)Nc1cc(Nc2ccc3nsnc3c2)ncc1C(=O)NC[C@@H](F)C(C)(C)O	–	320	1160	74	80	–	93	Ratio IC50 (Homo sapiens [24]): > 15000
CNC(=O)c1cnc(Nc2ccc3ncsc3c2)cc1NC(C)C	21	4500	–	–	–	21	28	–
CCCCNC(=O)c1cnc(Nc2ccc3ncsc3c2)cc1NC(C)C	7	–	–	55	31	–	–	–
CC(C)Nc1cc(Nc2ccc3ncsc3c2)ncc1C(=O)NCC(F)(F)C(C)(C)O	–	570	2800	71	61	–	320	–
CC(C)Nc1cc(Nc2ccn3nccc3c2)ncc1C(=O)NC[C@@H](F)C(C)(C)O	–	410	650	78	85	–	> 380	Ratio IC50 (Homo sapiens [24]): 240
CC(C)Nc1cc(Nc2ccc3nonc3c2)ncc1C(=O)NC[C@@H](F)C(C)(C)O	8.7	640	210	93	89	3.8	190	Ratio IC50 (Homo sapiens [24]): 420; clearance [25]: 14 mL/min/kg; Vd [26]: 3.2 L/kg; half-life [27]: 3.6 h; AUC at 24 h [15]: 4.7 µM·h; AUC at 24 h [28]: 4.6 µM·h; bioavailability [29]: 65%
CC(C)Nc1cc(Nc2ccc3ncsc3c2)ncc1C(=O)NCCCO	24	6900	–	84	87	–	16	–
CCNC(=O)c1cnc(Nc2ccc3ncsc3c2)cc1NC(C)C	15	–	–	74	45	–	–	–

Continued, in another order:

IC50 [1] [nM]	IC50 [2] [nM]	IC50 [3] [nM]	Stability [4] [%]	remaining at 10 min [5] [%]	Papp A→B [11] [×10⁻⁶ cm/s]	Compound	Ratio IC50 (Homo sapiens [6])	other results
2.4	230	810	90	89	8.1	CC(C)(O)[C@H](F)CNC(=O)c1cnc(Nc2ccc3ncsc3c2)cc1NC1CC1	170	IC50 [7]: 240 nM; inhibition [8]: 50%; inhibition [9]: 95%; inhibition [10]: 99%; clearance [12]: 47 mL/min/kg; Vd [13]: 2.1 L/kg; half-life [14]: 2.2 h; AUC at 24 h [15]: 1.6 µM·h; AUC at 24 h [16]: 3.3 µM·h; bioavailability [17]: 40%; T>IC50 [18]: <= 3 hr; concentration at 1.5 h [19]: 4.5 µM; concentration at 1.5 h [20]: 0.41 µM; concentration at 1.5 h [21]: 9.6 µM
–	290	1100	79	68	–	CC(C)Nc1cc(Nc2ccc3ncsc3c2)ncc1C(=O)NCCC(C)(C)O	104	–
19	2900	–	–	–	–	CC(C)Nc1cc(Nc2ccc3ncsc3c2)ncc1C(=O)NC[C@@H](C)C(C)(C)O	–	–
5.7	1200	–	17	38	< 1.5	CC(C)Nc1cc(Nc2ccc3ncsc3c2)ncc1C(=O)NCCc1ccc(S(N)(=O)=O)cc1	280	IC50 (Cytochrome P450 3A4): 900 nM
–	–	–	90	22	< 1.5	CNC(=O)c1cnc(Nc2ccc3ncsc3c2)cc1N[C@@H](c1ccccc1)[C@H](O)CO	–	–
12	–	–	52	32	–	CCCNC(=O)c1cnc(Nc2ccc3ncsc3c2)cc1NC(C)C	–	–
8	1700	12000	92	78	–	Cc1nc2ccc(Nc3cc(NC(C)C)c(C(=O)NC[C@@H](F)C(C)(C)O)cn3)cc2s1	3500	Ratio IC50 (Homo sapiens [24]): 6200
2.4	480	2000	92	86	–	CC(C)Nc1cc(Nc2ccc3ncsc3c2)ncc1C(=O)NC[C@@H](F)C(C)(C)O	270	–
